Laboratory results taken from EPA's ToxValDB 9.5.

How the values were obtained:
Rattus norvegicus [1] = details: oral
Rattus norvegicus [2] = details: oral, gavage; for LOAEL / NOAEL: Sprague-Dawley
[3] = subchronic, gavage, M, Sprague-Dawley
[4] = subchronic, gavage, M, Sprague-Dawley, Clinical Observation: Salivation + Body Weight Changes: Gain increase + Food Consumption: increase + Hematology: Plt increase, Eosinophil% …
[5] = subchronic, gavage, M, Sprague-Dawley, Clinical Observation: Excessive salivation Decreased spontaneous locomotors Decreased respiration rate Incomplete eyelid opening + …
[6] = short-term, duration: 28 days, gavage, M, Sprague-Dawley, Clinical Observation: Yellow-orange urine SalivationSpontaneous locomotion decrease, Respiratory rate decrease, Soft stool + Body Weight …
[7] = short-term, duration: 28 days, gavage, F, Sprague-Dawley, Functional Observational Battery: Locomotor activity decrease
[8] = short-term, duration: 28 days, gavage, M, Sprague-Dawley, Functional Observational Battery: Locomotor activity decrease
[9] = reproduction developmental, duration: 4 weeks, M, Rjhan:SD, generation: P0, P0: Whole Body: Clinical Observations
[10] = reproduction developmental, duration: 4 weeks, M, generation: P0, P0: General Toxicity: Whole Body: Body Weight + P0: General Toxicity: Whole Body: Clinical Observations + P0: General Toxicity: Whole Body: …
[11] = reproduction developmental, duration: 6 weeks, F, Rjhan:SD, generation: P0, P0: Whole Body: Clinical Observations
[12] = reproduction developmental, duration: 54 days, F, generation: P0, P0: General Toxicity: Whole Body: Body Weight + P0: General Toxicity: Whole Body: Clinical Observations + P0: General Toxicity: Whole Body: …

## O=S(=O)(O)c1cc(Cl)cc(N=Nc2ccc3c(O)cccc3c2O)c1[O-].[Na+]
Rattus norvegicus [1]; short-term, duration: 28 days, gavage, M/F, Crl:CD(SD), Deaths + Clinical Observation: Loose stool Locomotor activity increase + Body Weight Changes: decrease + Water Consumption: increase + …
  NOEL: < 40 mg/kg-day

## COc1cccc(OC)c1C(=O)P(=O)(CC(C)CC(C)(C)C)C(=O)c1c(OC)cccc1OC (stereo not drawn)
Rattus norvegicus [1]; short-term, duration: 28 days, gavage, M/F, Blood Chemistry: CHE decrease + Absolute Organ Weight: Liver increase + Histopathology: Skin-Proliferation, epidermis, horny layer Skin-…
  NOEL: 5 mg/kg-day

## CC1(C)C(C=CC(=O)OC(C(F)(F)F)C(F)(F)F)C1C(=O)OC(C#N)c1cccc(Oc2ccccc2)c1 (stereo not drawn)
Rattus norvegicus [1]; short-term, duration: 28 days, gavage, M/F, Deaths + Clinical Observation: Salivation + Urinalysis: Specific gravity decrease, pH decrease + Blood Chemistry: GPT increase, BUN …
  NOEL: < 5 mg/kg-day

## COc1c(N2CCNC(C)C2)c(F)cc2c(=O)c(C(=O)O)cn(C3CC3)c12.O (stereo not drawn)
Rattus norvegicus [1]; chronic, duration: 182 days, gavage, M/F, Wistar, Clinical Observation: Loss of increaseper incisor + Body Weight Changes: decrease + Urinalysis: Ca increase + Hematology: SEG decrease, …
  NOAEL: 30 mg/kg-day

## CCn1cc(C(=O)O)c(=O)c2cc(F)c(N3CCNCC3)nc21.CCn1cc(C(=O)O)c(=O)c2cc(F)c(N3CCNCC3)nc21.CCn1cc(C(=O)O)c(=O)c2cc(F)c(N3CCNCC3)nc21.O.O
Rattus norvegicus [1]; short-term, duration: 28 days, gavage, M/F, Sprague-Dawley, Clinical Observation: Loose stool + Body Weight Changes: Body weight gain decrease + Food Consumption: decrease + Urinalysis: White crystal…
  NOEL: 120 mg/kg-day

## CCOCCc1ccc(OCC(OC)OC)c(C)c1C
Rattus norvegicus [1]; short-term, duration: 28 days, gavage, M/F, Clinical Observation: Salivation Locomotor activity decrease + Blood Chemistry: GOT increase, GPT increase, gamma-GTP increase, T-CHO …
  NOEL: < 40 mg/kg-day

## O=[N+]([O-])c1cc(Cl)c(/N=N/c2ccc3c(c2)c2ccccc2n3CCO)c(Cl)c1
Rattus norvegicus [1]; short-term, duration: 28 days, gavage, M/F, Body Weight Changes: Body weight gain decrease + Food Consumption: decrease + Water Consumption: increase + Urinalysis: Urine volume …
  NOEL: 140 mg/kg-day

## CCCC[B-](c1ccccc1)(c1ccccc1)c1ccccc1.CCN(CC)c1ccc(C(=C/C=C/C(=C2C=CC(=[N+](CC)CC)C=C2)c2ccc(N(CC)CC)cc2)c2ccc(N(CC)CC)cc2)cc1
Rattus norvegicus [1]; short-term, duration: 28 days, gavage, M/F, Blood Chemistry: GPT increase, Ch E decrease + Organ Weight: Kidney decrease, Adrenal decrease + Necropsy: Adrenal- Reddish brown + …
  NOEL: 30 mg/kg-day

## CC(O)C(=O)[O-].[Na+] (racemic) [Sodium DL-lactate]
Rattus norvegicus [1]; subchronic, duration: 42 days, gavage, M, CD(SD), Thyroid Hormone: T4 increase, TSH increase + Histopathology: Stomach-Hyperplasia, squamous, limiting ridge
  NOEL: 100 mg/kg-day

## O=S(=O)(c1cc(Br)c(OCC(Br)CBr)c(Br)c1)c1cc(Br)c(OCC(Br)CBr)c(Br)c1 (stereo not drawn) [1,1'-Sulfonylbis[3,5-dibromo-4-(2,3-dibromopropoxy)benzene]]
Rattus norvegicus [1]; [3]
  NOAEL: 1000 mg/kg-day
  NOEL: 1000 mg/kg-day

## CC(C)(O)C(Cl)(Cl)Cl [1,1,1-Trichloro-2-methyl-2-propanol]
Rattus norvegicus [1]; subchronic, gavage, M, Sprague-Dawley, Clinical Observation: Staggering gait + Functional Observational Battery: Grip strength decrease, Locomotor activity decrease + Food …
  NOEL: < 10 mg/kg-day

## CN(C)CCN(C)CCN(C)C [1,1,4,7,7-Pentamethyldiethylenetriamine]
Rattus norvegicus [1]; subchronic, gavage, M, Sprague-Dawley, Body Weight Changes: decrease200 + Blood Chemistry: Alb decrease, IP increase + Relative Organ Weight: Liver increase + Histopathology: "…
  NOEL: 40 mg/kg-day

## c1ccc2n[nH]nc2c1 [1,2,3-Benzotriazole]
Rattus norvegicus [1]; subchronic, gavage, M, Sprague-Dawley, Blood Chemistry: AST increase, ALT increase, TP decrease, A/G increase, PL increase, K increase
  NOEL: < 30 mg/kg-day

## Clc1ccccc1NNc1ccccc1Cl [1,2-Bis(2-chlorophenyl)hydrazine]
Rattus norvegicus [1]; subchronic, gavage, M, Sprague-Dawley, Body Weight Changes: decrease(trend) + Hematology: Hgb decrease, RET increase(trend) + Blood Chemistry: T-CHO increase(trend) + Relative …
  NOEL: 40 mg/kg-day

## CC(C)(C)c1cc(C(C)(C)C)cc(C(C)(C)C)c1 [1,3,5-Tri-tert-butylbenzene]
Rattus norvegicus [1]; [4]
  LOAEL: 50 mg/kg-day
  LOEL: 50 mg/kg-day
  NOAEL: 10 mg/kg-day
  NOEL: 10 mg/kg-day

## Nc1ccc(Oc2cccc(Oc3ccc(N)cc3)c2)cc1 [1,3-Phenylenedi(4-aminophenyl ether)]
Rattus norvegicus [1]; short-term, duration: 28 days, gavage, M/F, Deaths + Clinical Observation: Piloerection Abnormal distention Lethargy Loss of hair + Body Weight Changes: Weight gain decrease + Food …
  NOEL: 10 mg/kg-day

## SCC1CSC(CS)CS1 (stereo not drawn) [1,4-Dithiane-2,5-dimethanethiol]
Rattus norvegicus [1]; short-term, duration: 28 days, gavage, M/F, Clinical Observation: Salivation Ataxic gait Locomotor activity decrease + Body Weight Changes: Body weight gain decrease + Food Consumption…
  NOEL: 20 mg/kg-day

## CC(C)(C)Oc1ccc(Cl)cc1 [1-Chloro-4-tert-butoxybenzene]
Rattus norvegicus [1]; [5]
  NOAEL: 100 mg/kg-day
  NOEL: 20 mg/kg-day

## CCCCCCCCCCCCCCCCCCCCCCN(C)C [1-Docosanamine, N,N-dimethyl-]
Rattus norvegicus [1]; subchronic, gavage, M, Sprague-Dawley, Body Weight Changes: decrease + Blood Chemistry: AST increase, ALT increase, Alb increase, A/G increase, ALP decrease + Necropsy: Mesentric …
  NOEL: 0.5 mg/kg-day

## C=COCC(CC)CCCC (stereo not drawn) [1-Ethenoxy-2-ethylhexane]
Rattus norvegicus [1]; short-term, duration: 28 days, gavage, M/F, Sprague-Dawley, Urinalysis: Occult blood increase + Blood Chemistry: ALP increase, Cho increase, PL increase + Relative Organ Weight: Liver increase, …
  NOEL: 8 mg/kg-day

## COc1ccccc1[N+](=O)[O-] [1-Methoxy-2-nitrobenzene]
Rattus norvegicus [1]; [6]
  NOAEL: 80 mg/kg-day
  NOEL: 80 mg/kg-day
Rattus norvegicus [1]; subchronic, duration: 13 weeks, diet, M/F, Fischer 344, Deaths + Body Weight Changes: decrease + Food Consumption: decrease + Hematology: Ret increase, Hct decrease, Hgb decrease, RBC decrease, …
  NOEL: < 19.2 mg/kg-day

## C=CCCCCCC [1-Octene]
Rattus norvegicus [1]; subchronic, duration: 90 days, gavage, M/F, Urinalysis: Volume increase + Blood Chemistry: Cl decrease, CRE increase + Absolute Organ Weight: Kidney increase + Relative Organ Weight: …
  NOEL: 50 mg/kg-day

## O=C1C(Cl)=C(Cl)C(=O)N1Cc1ccccc1 [1-benzyl-3,4-dichloro-1H-pyrrole-2,5-dione]
Rattus norvegicus [1]; short-term, duration: 28 days, gavage, M/F, Clinical Observation: Salivation + Body Weight Changes: Body weight gain decrease + Blood Chemistry: TG decrease, GLU decrease + Organ …
  NOEL: 40 mg/kg-day

## O=C1NC(=O)c2c(Cl)c(Cl)c(Cl)c(Cl)c21 [1H-Isoindole-1,3(2H)-dione, 4,5,6,7-tetrachloro-]
Rattus norvegicus [1]; [7]
  LOEL: 1000 mg/kg-day
  NOEL: 300 mg/kg-day
Rattus norvegicus [1]; [8]
  LOEL: 1000 mg/kg-day
  NOEL: 300 mg/kg-day

## CC(C)=CCl [2,2-Dimethylvinyl chloride]
Rattus norvegicus [1]; subchronic, duration: 13 weeks, gavage, M/F, Fischer 344, Deaths + Clinical Observation: Rough hair Inactivity Perianal wetness + Body Weight Changes: decrease + Histopathology: Liver/periportal-…
  NOEL: 125 mg/kg-day

## C=C(F)C(F)(F)C(F)(F)C(F)F [2,3,3,4,4,5,5-Heptafluoro-1-pentene]
Rattus norvegicus [1]; short-term, duration: 28 days, gavage, M/F, Deaths + Clinical Observation: Salivation Locomotor activity decrease, Whitish discoloration of tooth Bradypnea Reddening of extremity and …
  NOEL: 8 mg/kg-day

## O=C(c1ccc(O)cc1)c1ccc(O)c(O)c1O [2,3,4,4'-Tetrahydroxybenzophenone]
Rattus norvegicus [1]; subchronic, duration: 42 days, gavage, M, CD(SD), Clinical Observation: Salivation + Functional Observational Battery: Hind limb grip strength decrease + Body Weight Changes: Weight gain …
  NOEL: < 100 mg/kg-day

## CC(=O)C(C)=O [2,3-Butanedione]
Rattus norvegicus [1]; subchronic, duration: 90 days, gavage, M/F, CFE, Body Weight Changes: decrease + Water Consumption: increase + Hematology: HGB decrease, HCT decrease, RET increase, WBC increase, NEUT …
  NOEL: 90 mg/kg-day

## O=S(=O)(O)C(F)(F)F [Trifluoromethanesulfonic acid]
Rattus norvegicus [2]; developmental, duration: 54 days, M/F, generation: F1, F1: Developmental: Whole Body: Dams with Liveborn Pups + F1: Developmental: Whole Body: Lactation Index + F1: Developmental: Whole Body: …
  LOAEL: 300 mg/kg-day
Rattus norvegicus [2]; reproduction developmental, duration: 4 weeks, M, Rjhan:SD, generation: P0, P0: Multi-organ: Histopathology, Unspecified + P0: Multi-organ: Organ Weights, Unspecified + P0: Whole Body: Body Weight, Absolute + P0: …
  NEL: 1000 mg/kg-day
Rattus norvegicus [2]; [9]
  LEL: 300 mg/kg-day
  NEL: 100 mg/kg-day
Rattus norvegicus [2]; [10]
  LOAEL: 300 mg/kg-day
  NOAEL: 100 mg/kg-day
Rattus norvegicus [2]; reproduction developmental, duration: 4 weeks, M, generation: P0, P0: Whole Body: Whole Body: Histopathology, Unspecified
  NOAEL: 1000 mg/kg-day
Rattus norvegicus [2]; reproduction developmental, duration: 6 weeks, F, Rjhan:SD, generation: P0, P0: Multi-organ: Histopathology, Unspecified + P0: Multi-organ: Organ Weights, Unspecified + P0: Ovary: Corpora Lutea + P0: Uterus: …
  NEL: 1000 mg/kg-day
Rattus norvegicus [2]; [11]
  LEL: 1000 mg/kg-day
  NEL: 300 mg/kg-day
Rattus norvegicus [2]; reproduction developmental, duration: 6 weeks, M/F, Rjhan:SD, generation: F1, F1: Whole Body: Body Weight, Absolute + F1: Whole Body: Clinical Observations + F1: Whole Body: Dams with Liveborn Pups + F1: Whole Body: …
  NEL: 1000 mg/kg-day
Rattus norvegicus [2]; reproduction developmental, duration: 54 days, F, generation: P0, P0: Developmental: Uterus: Implantation + P0: Developmental: Uterus: Post-Implantation Loss + P0: Developmental: Uterus: Pre-Implantation …
  LOAEL: 300 mg/kg-day
Rattus norvegicus [2]; [12]
  LOAEL: 300 mg/kg-day
  NOAEL: 100 mg/kg-day
Rattus norvegicus [2]; short-term, duration: 28 days, F, Crj:CD, Adrenal: Adrenal Gland Weight, Absolute + Adrenal: Adrenal Gland Weight, Absolute, Recovery + Adrenal: Adrenal Gland Weight, Relative + …
  NEL: 1000 mg/kg-day
Rattus norvegicus [2]; short-term, duration: 28 days, F, Crj:CD, Blood: Platelet Count (PLT) + Blood: Total Protein (TP), Blood + Forestomach: Boundary Ridge Protrusion + Kidney: Pyelectasis + Stomach: …
  LEL: 1000 mg/kg-day
Rattus norvegicus [2]; short-term, duration: 28 days, F, Crj:CD, Blood: Platelet Count (PLT) + Blood: Total Protein (TP), Blood + Forestomach: Boundary Ridge Protrusion + Stomach: Glandular Stomach, …
  NEL: 200 mg/kg-day
Rattus norvegicus [2]; short-term, duration: 28 days, M, Crj:CD, Adrenal: Adrenal Gland Weight, Absolute + Adrenal: Adrenal Gland Weight, Absolute, Recovery + Adrenal: Adrenal Gland Weight, Relative + …
  NEL: 1000 mg/kg-day
Rattus norvegicus [2]; short-term, duration: 28 days, M, Crj:CD, Blood: Albumin/Globulin (A/G) Ratio, Recovery + Blood: Calcium (CA), Recovery, Blood + Blood: Chloride (CL), Recovery, Blood + Forestomach: …
  LEL: 1000 mg/kg-day
Rattus norvegicus [2]; short-term, duration: 28 days, M, Crj:CD, Forestomach: Boundary Ridge Protrusion
  NEL: 200 mg/kg-day
